Assay results as given in US12344597B2, “Alkoxy-substituted pyridinyl derivatives as LPA1 receptor antagonists and their use in the treatment of fibrosis” (IDORSIA PHARMACEUTICALS LTD, priority 2018, dated 2025).
pIC50: −log10 of the molar value.

Molecular target: human LPA1 receptor (Homo sapiens (Human), UniProt Q92633)
Assay: Beta-arrestin recruitment assay to determine IC50 values for human LPAR1
Type: cell-based
Conditions: antagonist mode, Tango EDG2-bla U2OS cells, LPA 18:1 500 nM final
Outline: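 Tango EDG2-bla U2OS cells: LPA-driven beta-arrestin/TEV protease recruitment releases Gal4-VP16, inducing beta-lactamase reporter read with live-cell substrate. Cells seeded 20 h at 37 °C beforehand. IC50 is antagonist concentration inhibiting 50% of maximal response.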

human LPA1 receptor, sequence (Q92633 whole entry): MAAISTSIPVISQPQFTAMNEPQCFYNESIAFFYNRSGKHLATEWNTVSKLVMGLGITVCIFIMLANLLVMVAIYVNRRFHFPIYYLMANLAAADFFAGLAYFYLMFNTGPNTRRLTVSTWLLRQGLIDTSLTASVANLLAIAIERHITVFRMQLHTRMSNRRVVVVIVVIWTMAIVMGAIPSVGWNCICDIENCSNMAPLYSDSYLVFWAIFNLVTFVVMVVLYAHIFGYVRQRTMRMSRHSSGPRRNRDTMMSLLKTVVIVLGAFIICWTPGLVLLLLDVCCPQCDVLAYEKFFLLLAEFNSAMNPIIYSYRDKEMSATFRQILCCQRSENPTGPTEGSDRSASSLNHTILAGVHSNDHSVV

pIC50 | Molecule
7.70 | Cc1ccc(NC(=O)C2(c3ccccc3C(C)C)CN(C[C@@H](O)CN)C2)c(OC(F)F)n1 [Ex 11-83, (S)-1-(3-amino-2-hydroxypropyl)-N-(2-(difluoromethoxy)-6-methylpyridin-3-yl)-3-(2-isopropylphenyl)azetidine-3-carboxamide]
8.30 | Cc1ccc(NC(=O)C2(c3ccccc3C(C)C)CN(Cc3ccc(C(=O)O)[nH]3)C2)c(OC(F)F)n1 [Ex 11-44, 5-((3-((2-(difluoromethoxy)-6-methylpyridin-3-yl)carbamoyl)-3-(2-isopropylphenyl)azetidin-1-yl)methyl)-1H-pyrrole-2-carboxylic acid]
7.39 | Cc1ccc(NC(=O)C2(c3ccccc3C(C)C)CN(C(=O)CC3(C(=O)O)CCOC3)C2)c(OC(F)F)n1 (stereo not shown) [Ex 12-123, 3-(2-(3-((2-(difluoromethoxy)-6-methylpyridin-3-yl)carbamoyl)-3-(2-isopropylphenyl)azetidin-1-yl)-2-oxoethyl)tetrahydrofuran-3-carboxylic acid]
8.15 | Cc1ccc(NC(=O)C2(c3ccccc3C(C)C)CCN(C(=O)CC3(O)COC3)CC2)c(OC(F)F)n1 [Ex 12-14, N-(2-(difluoromethoxy)-6-methylpyridin-3-yl)-1-(2-(3-hydroxyoxetan-3-yl)acetyl)-4-(2-isopropylphenyl)piperidine-4-carboxamide]
8.00 | CCOC(=O)c1c[nH]nc1CN1CC(C(=O)Nc2ccc(C)nc2OC(F)F)(c2ccccc2C(C)C)C1 [Ex 11-39, ethyl 3-((3-((2-(difluoromethoxy)-6-methylpyridin-3-yl)carbamoyl)-3-(2-isopropylphenyl)azetidin-1-yl)methyl)-1H-pyrazole-4-carboxylate]
7.21 | Cc1ccc(NC(=O)C2(c3ccccc3C(C)C)CN(C(=O)C[C@@H]3COCCN3)C2)c(OC(F)F)n1 [Ex 12-45, (R)-N-(2-(difluoromethoxy)-6-methylpyridin-3-yl)-3-(2-isopropylphenyl)-1-(2-(morpholin-3-yl)acetyl)azetidine-3-carboxamide]
7.26 | Cc1ccc(NC(=O)C2(c3ccccc3C(C)C)CN(S(=O)(=O)CCCCC(=O)O)C2)c(OC(F)F)n1 [Ex 13-19, 5-((3-((2-(difluoromethoxy)-6-methylpyridin-3-yl)carbamoyl)-3-(2-isopropylphenyl)azetidin-1-yl)sulfonyl)pentanoic acid]
7.30 | Cc1ccc(NC(=O)C2(c3ccccc3C(C)C)CN(C(=O)/C=C/C(=O)O)C2)c(OC(F)F)n1 [Ex 12-75, (E)-4-(3-((2-(difluoromethoxy)-6-methylpyridin-3-yl)carbamoyl)-3-(2-isopropylphenyl)azetidin-1-yl)-4-oxobut-2-enoic acid]
8.70 | Cc1ccc(NC(=O)C2(c3ccccc3C(C)C)CCN(C(=O)Cn3cnnn3)CC2)c(OC(F)F)n1 [Ex 12-20, 1-(2-(1H-tetrazol-1-yl)acetyl)-N-(2-(difluoromethoxy)-6-methylpyridin-3-yl)-4-(2-isopropylphenyl)piperidine-4-carboxamide]
7.33 | Cc1ccc(NC(=O)C2(c3ccccc3C(C)C)CN(CCCC(C)(C)C#N)C2)c(OC(F)F)n1 [Ex 11-60, 1-(4-cyano-4-methylpentyl)-N-(2-(difluoromethoxy)-6-methylpyridin-3-yl)-3-(2-isopropylphenyl)azetidine-3-carboxamide]
7.32 | N-(2-(difluoromethoxy)-6-methylpyridin-3-yl)-1-(3-(N-hydroxyacetamido)propanoyl)-3-(2-isopropylphenyl)azetidine-3-carboxamide [Ex 12-130]
6.85 | COC(=O)C(C)(C)CC(=O)N1CC(C(=O)Nc2ccc(OC)nc2OC)(c2ccccc2C(C)C)C1 [Ex 12-85, methyl 4-(3-((2,6-dimethoxypyridin-3-yl)carbamoyl)-3-(2-isopropylphenyl)azetidin-1-yl)-2,2-dimethyl-4-oxobutanoate]
6.49 | Cc1ccc(NC(=O)C2(c3ccccc3C(C)C)CNC2)c(OC(C)C)n1 [Ex 2, N-(2-isopropoxy-6-methylpyridin-3-yl)-3-(2-isopropylphenyl)azetidine-3-carboxamide]
5.57 | Cc1ccc(NC(=O)C2(c3ccccc3C(C)C)CN(C(=O)C3(C(=O)O)CNC3)C2)c(OC(F)F)n1 [Ex 12-114, 3-(3-((2-(difluoromethoxy)-6-methylpyridin-3-yl)carbamoyl)-3-(2-isopropylphenyl)azetidine-1-carbonyl)azetidine-3-carboxylic acid]
8.05 | COC(=O)C(C)(C)CNC(=O)N1CC(C(=O)Nc2ccc(C)nc2OC(F)F)(c2ccccc2C(C)C)C1 [Ex 17-16, methyl 3-(3-((2-(difluoromethoxy)-6-methylpyridin-3-yl)carbamoyl)-3-(2-isopropylphenyl)azetidine-1-carboxamido)-2,2-dimethylpropanoate]
7.89 | Cc1ccc(NC(=O)C2(c3ccccc3C(C)C)CN(C(=O)[C@H]3C[C@H]3C(=O)O)C2)c(OC(F)F)n1 [Ex 12-97, (1R,2S)-2-(3-((2-(difluoromethoxy)-6-methylpyridin-3-yl)carbamoyl)-3-(2-isopropylphenyl)azetidine-1-carbonyl)cyclopropane-1-carboxylic acid]

pIC50 | Molecule
7.26 | Cc1cnc(NC(=O)C2(c3ccccc3C(C)C)CN(S(=O)(=O)CCC(=O)OCc3ccccc3)C2)c(OC(F)F)c1 [Ex 80-1, benzyl 3-((3-((3-(difluoromethoxy)-5-methylpyridin-2-yl)carbamoyl)-3-(2-isopropylphenyl)azetidin-1-yl)sulfonyl)propanoate]
7.82 | Cc1ccc(NC(=O)C2(c3ccccc3C(C)C)CCN(C(=O)Cc3cc(O)n[nH]3)CC2)c(OC(F)F)n1 [Ex 12-25, N-(2-(difluoromethoxy)-6-methylpyridin-3-yl)-1-(2-(3-hydroxy-1H-pyrazol-5-yl)acetyl)-4-(2-isopropylphenyl)piperidine-4-carboxamide]
7.07 | Cc1ccc(NC(=O)C2(c3ccccc3C(C)C)CN(C(=O)N[C@H](C)C(=O)O)C2)c(OC(F)F)n1 [Ex 17-24, (3-((2-(difluoromethoxy)-6-methylpyridin-3-yl)carbamoyl)-3-(2-isopropylphenyl)azetidine-1-carbonyl)-D-alanine]
7.02 | COC(=O)c1cnc(CN2CC(C(=O)Nc3ccc(C)nc3OC(F)F)(c3ccccc3C(C)C)C2)cn1 [Ex 11-54, methyl 5-((3-((2-(difluoromethoxy)-6-methylpyridin-3-yl)carbamoyl)-3-(2-isopropylphenyl)azetidin-1-yl)methyl)pyrazine-2-carboxylate]
8.00 | Cc1ccc(NC(=O)C2(c3ccccc3C(C)C)CN(C[C@@H](O)CNC(=O)CO)C2)c(OC(F)F)n1 [Ex 11-86, (S)-N-(2-(difluoromethoxy)-6-methylpyridin-3-yl)-1-(2-hydroxy-3-(2-hydroxyacetamido)propyl)-3-(2-isopropylphenyl)azetidine-3-carboxamide]
8.00 | CC(C)c1ccccc1C1(C(=O)Nc2cccnc2OC(F)F)CN(c2ncncc2F)C1 [Ex 18-21, N-(2-(difluoromethoxy)pyridin-3-yl)-1-(5-fluoropyrimidin-4-yl)-3-(2-isopropylphenyl)azetidine-3-carboxamide]
7.44 | Cc1ccc(NC(=O)C2(c3ccccc3C(C)C)CN(C(=O)c3cn[nH]c3)C2)c(OC(F)F)n1 [Ex 12-15, N-(2-(difluoromethoxy)-6-methylpyridin-3-yl)-3-(2-isopropylphenyl)-1-(1H-pyrazole-4-carbonyl)azetidine-3-carboxamide]
7.29 | COC(=O)[C@H]1C[C@H]1C(=O)N1CC(C(=O)Nc2ccc(C)nc2OC(F)F)(c2ccccc2C(C)C)C1 [Ex 12-94, methyl (1S,2R)-2-(3-((2-(difluoromethoxy)-6-methylpyridin-3-yl)carbamoyl)-3-(2-isopropylphenyl)azetidine-1-carbonyl)cyclopropane-1-carboxylate]
7.17 | Cc1ccc(NC(=O)C2(c3ccccc3C(C)C)CN(C(=O)[C@H]3CC[C@@H](C(=O)O)CC3)C2)c(OC(F)F)n1 [Ex 50, (1s,4s)-4-(3-((2-(difluoromethoxy)-6-methylpyridin-3-yl)carbamoyl)-3-(2-isopropylphenyl)azetidine-1-carbonyl)cyclohexane-1-carboxylic acid]
7.41 | Cc1ccc(NC(=O)C2(c3ccccc3C(C)C)CN(C(=O)CC(F)(F)C(=O)O)C2)c(OC(F)F)n1 [Ex 12-112, 4-(3-((2-(difluoromethoxy)-6-methylpyridin-3-yl)carbamoyl)-3-(2-isopropylphenyl)azetidin-1-yl)-2,2-difluoro-4-oxobutanoic acid]
8.00 | Cc1ccc(NC(=O)C2(c3ccccc3C(C)C)CN(S(=O)(=O)CCC(=O)OCc3ccccc3)C2)c(OC(F)F)n1 [Ex 13-4, Benzyl 3-((3-((2-(difluoromethoxy)-6-methylpyridin-3-yl)carbamoyl)-3-(2-isopropylphenyl)azetidin-1-yl)sulfonyl)propanoate]
8.22 | Cc1ccc(NC(=O)C2(c3ccccc3C3CCC3)CN(C(=O)CC(C)(C)C(=O)O)C2)c(OC(F)F)n1 [Ex 31-2, 4-(3-(2-cyclobutylphenyl)-3-((2-(difluoromethoxy)-6-methylpyridin-3-yl)carbamoyl)azetidin-1-yl)-2,2-dimethyl-4-oxobutanoic acid]
8.00 | CCOC(=O)c1coc(N2CC(C(=O)Nc3ccc(C)nc3OC(F)F)(c3ccccc3C(C)C)C2)n1 [Ex 18-27, ethyl 2-(3-((2-(difluoromethoxy)-6-methylpyridin-3-yl)carbamoyl)-3-(2-isopropylphenyl)azetidin-1-yl)oxazole-4-carboxylate]
7.80 | Cc1ccc(NC(=O)C2(c3ccccc3C(C)C)CN(C(=O)O[C@@H](C)C(=O)O)C2)c(OC(F)F)n1 [Ex 14-4, (S)-2-((3-((2-(difluoromethoxy)-6-methylpyridin-3-yl)carbamoyl)-3-(2-isopropylphenyl)azetidine-1-carbonyl)oxy)propanoic acid]
7.32 | CNCCN1CC(C(=O)Nc2ccc(C)nc2OC(F)F)(c2ccccc2C(C)C)C1 [Ex 11-62, N-(2-(difluoromethoxy)-6-methylpyridin-3-yl)-3-(2-isopropylphenyl)-1-(2-(methylamino)ethyl)azetidine-3-carboxamide]
